{"source": "patent US12544431B2", "about": "“Peptides for the treatment of cancer and/or metastasis” (BCN PEPTIDES, S.A., priority 2019, dated 2026)", "key": {"[1]": {"assay": "In vitro stability, half-life in human plasma", "format": "in vitro ADME", "settings": "90% human plasma, 37° C., RP-HPLC, read-out: t½ (hours) in human plasma (converted)", "method": "The peptides and peptide dimer synthesized and prepared in accordance with Example 1 were dissolved in water at a concentration of 6 mg/mL and warmed up to 37° C.\nHuman plasma was obtained as a lyophilized solid (K3 EDTA Plasma, BBI Solutions, code S112-1), reconstituted with sterile 0.9% sodium chloride solution and stored at −20° C. Human plasma was thawed and incubated at 37° C. before use.\nThe peptides and peptide dimer were incubated in 90% human plasma at 37° C. for different times and then precipitated with two volume equivalents of methanol. The samples were cooled in an acetone-carbon dioxide bath for a few seconds and centrifuged for 12 minutes at 4° C. at approximately 10,000 rpm. The supernatant was filtered with a 0.45 μm PVDF filter and analyzed in triplicate by RP-HPLC using an isocratic method (Eluent A=0.1% TFA in water; Eluent B=0.07% TFA in ACN, Column=Kromasil C8, 100 Å, 5 μm, 250×4.6 mm, Flow=1 mL/min, Wavelength: 220 nm, Injection volume=20 μL, Temperature=60° C.). The disappearance of the compound was determined in relation to the area of the initial time to calculate its half-life."}, "[2]": {"system": "RH30 rhabdomyosarcoma cells", "assay": "Matrigel-coated transwell invasion assay, RH30 cells", "format": "cell-based", "settings": "% invasive cells vs non-treated control", "method": "(§1) 10^5 RH30 or RD cells were plated in the upper chamber of a Matrigel-coated transwell (Corning) in 0.1 mL medium without FBS. Cells were previously incubated with different concentrations (0 nM, 100 nM, 200 nM, 500 nM and 1000 nM) of the peptides and peptide dimer for 48 hours, being also present in the medium during the cell invasion assay. In the lower chamber, 0.6 mL of medium with FBS was added. Cells were incubated at 37° ° C. for 24 hours.\n(§2) After that, cells were fixed with 4% paraformaldehyde (Sigma) for 10 minutes, followed by washing with PBS. After removal of the Matrigel and remaining cells from the upper face of the membrane with a cotton swab, the cells present on the lower face were stained with a Hoechst dilution (Sigma) and were counted (5 fields for each well) with an inverted fluorescence microscope Nikon with a 10× objective. All experiments were made in triplicate. In Table 6 the % Invasiveness represents the mean percentage of invasive cells with respect to their controls."}, "[3]": {"system": "RD rhabdomyosarcoma cells", "assay": "Matrigel-coated transwell invasion assay, RD cells", "format": "cell-based", "settings": "% invasive cells vs non-treated control", "method": "as §1, §2"}, "[4]": {"settings": "500 nM peptide, listed as Octanoyl-SEQ ID NO: 5—NH2"}}, "note": "Read-outs that look alike come from different tables or passages of the source. Marks after values point to notes of the source that are not given here. *1 amine or outer side, *2 acyl side, *3 side chain or, on linkers, in order; H or OH if unused. Where a SMILES comes first, the peptide text is derived from it. Bridges are numbered along the chain shown (N, C = ends). Roman numbers before positions name the chains, in order. [ ]: non-standard residue; d: D form. The star is where a group is joined. Phe(2,4,6-Me3) = Cc1cc(C)c(C[C@H](N)C(=O)O)c(C)c1; X1 = Cc1cc(C)c(CC(N[*:1])C(=O)[*:2])c(C)c1; pGlu = O=C1CC[C@@H](C(=O)O)N1; Octanoyl = CCCCCCCC(=O)*", "data": [{"compound": "Cc1cc(C)c(C[C@H](NC(=O)[C@H](CCC(=O)O)NC(=O)[C@@H]2CCCN2C(=O)[C@H](CC(C)C)NC(=O)[C@H](CC(=O)O)NC(=O)[C@H](CSSC[C@H](NC(=O)[C@H](CO)NC(=O)[C@H](CC(N)=O)NC(=O)[C@H](CO)NC(=O)[C@H](CO)NC(=O)[C@H](CC(=O)O)NC(=O)[C@H](CCCNC(=N)N)NC(=O)[C@H](CCCCN)NC(=O)[C@@H]2CCC(=O)N2)C(=O)N[C@@H](CC(=O)O)C(=O)N[C@@H](CC(C)C)C(=O)N2CCC[C@H]2C(=O)N[C@@H](CCC(=O)O)C(=O)N[C@@H](Cc2c(C)cc(C)cc2C)C(=O)N[C@@H](CCCCN)C(N)=O)NC(=O)[C@H](CO)NC(=O)[C@H](CC(N)=O)NC(=O)[C@H](CO)NC(=O)[C@H](CO)NC(=O)[C@H](CC(=O)O)NC(=O)[C@H](CCCNC(=N)N)NC(=O)[C@H](CCCCN)NC(=O)[C@@H]2CCC(=O)N2)C(=O)N[C@@H](CCCCN)C(N)=O)c(C)c1", "note": "[(SEQ ID NO: 6-NH2)2 (disulfide bridge), (Pyr-Lys-Arg-Asp-Ser-Ser-Asn-Ser-Cys-Asp-Leu-Pro-Glu-Msa-Lys-NH2)2 (disulfide bridge)] (I: [pGlu]KRDSSNSCDLPE[Phe(2,4,6-Me3)]K-NH2 / II: [pGlu]KRDSSNSCDLPE[Phe(2,4,6-Me3)]K-NH2; disulfide I:9-II:9)", "values": [{"measurement": "half-life at 0.6 mg/mL", "setting": "[1]", "value": 33.1, "unit": "h"}, {"measurement": "% Invasiveness RH30", "setting": "[2]; 100 nM peptide", "value": "82.46* %"}, {"measurement": "% Invasiveness RH30", "setting": "[2]; 100 nM peptide, listed as (SEQ ID NO: 6—NH2)2", "value": "significant reduction"}, {"measurement": "% Invasiveness RH30", "setting": "[2]; 200 nM peptide", "value": "70.84* %"}, {"measurement": "% Invasiveness RH30", "setting": "[2]; 500 nM peptide", "value": "78.26* %"}, {"measurement": "% Invasiveness RH30", "setting": "[2]; 1000 nM peptide", "value": "57.59* %"}, {"measurement": "% Invasiveness RD", "setting": "[3]; 500 nM peptide", "value": 64.71, "unit": "%"}, {"measurement": "% Invasiveness RD", "setting": "[3]; 1000 nM peptide", "value": "25.36* %"}, {"measurement": "% Invasiveness RD", "setting": "[3]; 1000 nM peptide, listed as (SEQ ID NO: 6—NH2)2", "value": "significant decrease"}]}, {"compound": "CCCCCCCC(=O)N[C@@H](CCCCN)C(=O)N[C@@H](CCCNC(=N)N)C(=O)N[C@@H](CC(=O)O)C(=O)N[C@@H](CO)C(=O)N[C@@H](CO)C(=O)N[C@@H](CC(N)=O)C(=O)N[C@@H](CO)C(=O)N[C@@H](CS)C(=O)N[C@@H](CC(=O)O)C(=O)N[C@@H](CC(C)C)C(=O)N1CCC[C@H]1C(=O)N[C@@H](CCC(=O)O)C(=O)N[C@@H](Cc1c(C)cc(C)cc1C)C(=O)N[C@@H](CCCCN)C(N)=O", "note": "[Octanoyl-SEQ ID NO: 5-NH2, Octanoyl-Lys-Arg-Asp-Ser-Ser-Asn-Ser-Cys-Asp-Leu-Pro-Glu-Msa-Lys-NH2] (Octanoyl-KRDSSNSCDLPE[Phe(2,4,6-Me3)]K-NH2)", "values": [{"measurement": "half-life at 0.6 mg/mL", "setting": "[1]", "value": 0.15, "unit": "h"}, {"measurement": "% Invasiveness RH30", "setting": "[2]; 100 nM peptide", "value": 120.81, "unit": "%"}, {"measurement": "% Invasiveness RH30", "setting": "[2]; 500 nM peptide", "value": "41.12* %"}, {"measurement": "% Invasiveness RH30", "setting": "[2]; [4]", "value": "significant reduction"}, {"measurement": "% Invasiveness RD", "setting": "[3]; 100 nM peptide", "value": 56.90, "unit": "%"}, {"measurement": "% Invasiveness RD", "setting": "[3]; 500 nM peptide", "value": "14.16* %"}, {"measurement": "% Invasiveness RD", "setting": "[3]; [4]", "value": "significant decrease"}]}, {"compound": "Ac-RDSSNSCDLPEF-NH2 [Ac-SEQ ID NO: 10-NH2, Ac-Arg-Asp-Ser-Ser-Asn-Ser-Cys-Asp-Leu-Pro-Glu-Phe-NH2, reference compound]", "values": [{"measurement": "half-life at 0.6 mg/mL", "setting": "[1]; human plasma (K3 EDTA)", "value": 0.32, "unit": "h"}, {"measurement": "% Invasiveness RH30", "setting": "[2]; 100 nM peptide", "value": 83.91, "unit": "%"}, {"measurement": "% Invasiveness RH30", "setting": "[2]; 500 nM peptide", "value": 113.68, "unit": "%"}, {"measurement": "% Invasiveness RD", "setting": "[3]; 100 nM peptide", "value": 106.77, "unit": "%"}, {"measurement": "% Invasiveness RD", "setting": "[3]; 500 nM peptide", "value": 59.90, "unit": "%"}]}, {"compound": "CCCCCCCC(=O)N[C@@H](CCCCN)C(=O)N[C@@H](CCCNC(=N)N)C(=O)N[C@@H](CC(=O)O)C(=O)N[C@@H](CO)C(=O)N[C@@H](CO)C(=O)N[C@@H](CC(N)=O)C(=O)N[C@@H](CO)C(=O)N[C@@H](CCSC)C(=O)N[C@@H](CC(=O)O)C(=O)N[C@@H](CC(C)C)C(=O)N1CCC[C@H]1C(=O)N[C@@H](CCC(=O)O)C(=O)NC(Cc1c(C)cc(C)cc1C)C(=O)N[C@@H](CCCCN)C(N)=O", "note": "(stereo partly drawn) [Octanoyl-SEQ ID NO: 8-NH2, Octanoyl-Lys-Arg-Asp-Ser-Ser-Asn-Ser-Met-Asp-Leu-Pro-Glu-Msa-Lys-NH2] (Octanoyl-KRDSSNSMDLPE[X1]K-NH2)", "values": [{"measurement": "half-life at 0.6 mg/mL", "setting": "[1]", "value": 3.6, "unit": "h"}, {"measurement": "% Invasiveness RH30", "setting": "[2]; 100 nM peptide", "value": 88.38, "unit": "%"}, {"measurement": "% Invasiveness RH30", "setting": "[2]; 200 nM peptide", "value": 99.30, "unit": "%"}, {"measurement": "% Invasiveness RH30", "setting": "[2]; 500 nM peptide", "value": 71.92, "unit": "%"}, {"measurement": "% Invasiveness RH30", "setting": "[2]; 1000 nM peptide", "value": 74.06, "unit": "%"}, {"measurement": "% Invasiveness RD", "setting": "[3]; 100 nM peptide", "value": 75.55, "unit": "%"}, {"measurement": "% Invasiveness RD", "setting": "[3]; 200 nM peptide", "value": 113.22, "unit": "%"}, {"measurement": "% Invasiveness RD", "setting": "[3]; 500 nM peptide", "value": 63.27, "unit": "%"}, {"measurement": "% Invasiveness RD", "setting": "[3]; 1000 nM peptide", "value": "15.89* %"}, {"measurement": "% Invasiveness RD", "setting": "[3]; 1000 nM peptide, listed as Octanoyl-SEQ ID NO: 8—NH2", "value": "significant decrease"}]}]}
